Publication PMC8948829, “The Escherichia coli Amino Acid Uptake Protein CycA: Regulation of Its Synthesis and Practical Application in L-Isoleucine Production” (Microorganisms, 2022)

Target: T1, CycA (Escherichia coli, UniProt P0AAE0)
T1 construct: full-length native 470 aa inner-membrane permease, chromosomal cycA overexpressed from PL promoter (strain M1, MG1655 cat-PL-cycA), whole cells
T1 sequence (P0AAE0 1-470): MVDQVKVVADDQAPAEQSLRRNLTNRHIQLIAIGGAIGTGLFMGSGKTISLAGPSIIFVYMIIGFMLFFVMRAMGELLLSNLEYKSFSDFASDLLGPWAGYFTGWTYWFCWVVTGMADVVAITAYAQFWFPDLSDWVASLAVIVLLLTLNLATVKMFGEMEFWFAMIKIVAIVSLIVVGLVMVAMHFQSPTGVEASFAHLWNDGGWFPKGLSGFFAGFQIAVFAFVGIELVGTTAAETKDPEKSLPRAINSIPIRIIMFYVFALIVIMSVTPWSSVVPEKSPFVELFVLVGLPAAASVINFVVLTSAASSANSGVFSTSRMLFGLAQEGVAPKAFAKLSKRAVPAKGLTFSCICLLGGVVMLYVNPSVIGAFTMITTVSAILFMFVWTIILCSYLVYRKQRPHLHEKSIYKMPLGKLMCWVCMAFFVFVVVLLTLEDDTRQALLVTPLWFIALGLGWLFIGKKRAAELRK
Test: amino acid uptake (extracellular depletion), cycA-overexpressing versus wild-type cells
Format: cell-based
Settings: 50 mM, N-free M9 medium, 37 °C, 6 h; other native importers intact

Row | Compound | uptake rate
1 | CC[C@H](N)C(=O)O [AABA] | the uptake rate was higher in the case of the M1 strain, especially for Ala and AABA
2 | C[C@H](N)C(=O)O [Ala] | the uptake rate was higher in the case of the M1 strain, especially for Ala and AABA
